# Tested on: Angptl4 mRNA expression in 3T3-L1 cells
# Assay: Angptl4 mRNA expression (RT-qPCR) in 3T3-L1 cells
# Assay type: cell-based, murine
# Conditions: antagonist 0, 0.1, 1 and 10 μM, against GW7647, GW501516 or rosiglitazone respectively
# Description: To study the effect of CpFAs on the regulation of Angptl4 expression, Angptl4 mRNA expression levels were quantified by real-time qPCR in cultured murine 3T3-L1 cells. […] FIG. 7A-C show a dose-dependent response to representative CpFAs in murine 3T3-L1 cells.
# 3T3-L1 cell culture and PPAR activation: 3T3-LI preadipocytes were cultured in growth medium (high glucose Dulbecco's Modified Eagle Medium (DMEM) containing 10% calf serum (CS), 1× Pencillin/Streptomycin, and 1× Glutamax) and seeded in multi-well (12-or 24-well) plates. PPAR specificity of gene target activation was determined in 3T3-L1 preadipocytes using well-described agonists and antagonists for PPAR-α, PPAR-δ, or PPAR-γ. On the day of treatment, preadipocytes were serum starved in 0.25% CS in growth medium for 2-4 hours. Cells were pretreated with increasing concentrations (0, 0.1, 1 and 10 μM) of PPAR antagonists (GW6471 for PPAR-α, GSK3787 for PPARδ, and T0070907 for PPARγ) in serum starve medium. After 1 hour, selective PPAR agonists were added (GW7647 (PPAR-α), GW501516 (PPAR-δ), and rosiglitazone (PPAR-γ)) and incubated for 24 hours. Lysates were collected for RNA extraction. […] CpFA treatments (final concentrations of 37.5, 75, and 150 μM) were prepared in 0.25% serum starve media plus 3% BSA, followed by heating (55° C.) and sonicating for 30 minutes. Treatments were allowed to cool to 37° C. and then added to 3T3-L1 preadipocytes and incubated for 24 hours. Lysates for RNA isolation were collected.
# Angptl4 expression analyses: RNA was isolated from cell lysates using Qiagen 96 Total RNA kit. cDNA was synthesized and plated in triplicates in 384-well plates. RT-qPCR was performed using TaqMan Fast-Advanced master mix and TaqMan reagents and primers (18S, rplp0, angplt4) and analyzed using a Thermo Fisher Scientific QuantStudio 6 Flex PCR system. Relative gene expression was analyzed using the fold difference algorithm (2∧(−ΔΔCt)) using the geomean of 2 housekeeping genes (18S, RPLPO) compared to relevant vehicle control.
row,Structure (SMILES),reversal of synthetic PPAR agonist activity on Angptl4 mRNA expression
1,CCC(=O)NC[C@H](Cc1ccc(OCCc2nc(-c3ccccc3)oc2C)cc1)N/C(C)=C\C(=O)c1ccc(C(F)(F)F)cc1 [GW6471],concentration-dependent ability
2,O=C(NCCS(=O)(=O)c1ccc(C(F)(F)F)cn1)c1ccc(Cl)cc1 [GSK3787],concentration-dependent ability
3,O=C(Nc1ccncc1)c1cc([N+](=O)[O-])ccc1Cl [T0070907],concentration-dependent ability
